According to PMC7497443, “Imaging CXCR4 Expression with Iodinated and Brominated Cyclam Derivatives” (Molecular Imaging and Biology, 2020):
Entries after “also recorded” stand apart in the source; their conditions may differ. Read-outs that look alike come from different tables or passages of the source.

Assays:
CXCR4 = molecular target: T1, CXCR4 (Homo sapiens, UniProt P61073); test: Competitive binding assay with U87-CXCR4 cells and 67Ga-Pentixafor; conditions: U87-CXCR4 cells, 67Ga-Pentixafor 4.0 nM, 37 °C, 2 h, triplicate; read-out: IC50 affinity
T1 construct: host or cells: U87 glioma cells transduced with CXCR4 (U87-CXCR4)
T1 sequence (P61073 whole entry): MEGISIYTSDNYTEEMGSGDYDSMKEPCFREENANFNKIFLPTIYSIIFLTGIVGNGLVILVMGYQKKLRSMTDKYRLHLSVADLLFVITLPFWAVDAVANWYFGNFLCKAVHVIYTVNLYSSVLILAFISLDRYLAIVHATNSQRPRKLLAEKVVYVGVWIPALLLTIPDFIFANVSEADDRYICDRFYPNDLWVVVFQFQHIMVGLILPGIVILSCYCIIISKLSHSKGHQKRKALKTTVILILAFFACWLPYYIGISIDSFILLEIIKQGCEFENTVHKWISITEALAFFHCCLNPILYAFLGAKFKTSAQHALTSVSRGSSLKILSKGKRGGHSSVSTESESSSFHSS
Protocol: In order to determine the affinity of the halogenated cyclam derivatives, competitive binding studies were performed with U87-CXCR4 cells using ^67Ga-Pentixafor (CXCR4 receptor ligand). Briefly, triplicate samples containing 0.5 × 10^6 cells pre-seeded in 6-well plate, about 1.8 kBq of ^67Ga-Pentixafor (4.0 nM) and 0.001–1000 nM of the tested ligands (total volume 1.0 ml) were incubated at 37 °C for 2 h. After incubation, the cells were washed with 2 × 1 ml of ice-cold tris-buffered saline (pH 7.4) and then collected for measurement with a WIZARD 1480 gamma counter (PerkinElmer, Waltham, MA). The IC50 values were estimated using a least squares fitting routine (GraphPad Prism 6, San Diego, CA, USA).
Competitive binding assays were performed using U87-CXCR4 cells (expressing high levels of CXCR4) and ^67Ga-Pentixafor [31, 32] as a radioligand.

[1] = test system: U87-CXCR4, U87-WT, H69 and H82 s.c. tumors; test: Biodistribution in s.c. tumor-bearing animals 24 h after i.v. injection; format: in vivo, mice; conditions: n = 3
Protocol: All animal experiments were approved by the Institutional Animal Care and Utilization Committee of MSKCC. Eight human PCNSL xenograft models established at MSK (CG) were available for study. Female Athymic Nude Foxn (6–8 weeks old; ENVIGO) was used for subcutaneous implantation. Cancer cells, including U87-CXCR4, U87-WT, H69, and H82 (5 × 10^6 cells suspended in […] of cell culture medium/Matrigel [BD Bioscience] [v/v 5 1/1]), were inoculated to the shoulder/flank area of the animal. Twenty to 30 days after the inoculation, imaging and tissue sampling were performed when the tumor sizes were between 100 and 350 mm^3. For orthotopic models, U87-CXCR4 cells (1 × 10^5 cells suspended in 10 μl of cell culture medium) in 30-gauge needle were injected into the right frontal cortex (stereotactic coordinates: bregma + 1.7 mm (anterior), lateral − 0.5 mm (right), and at a depth of 2.5 mm). Individuals performing implantation and stereotactic injections were blinded to the experimental design. […]
After the last PET imaging time point, the animals were euthanized for tissue dissection. […] The total injected radioactivity per animal was determined from the measured radioactivity in an aliquot of the injectate. Data were expressed as percent of injected dose per gram of tissue (%ID/g).

U87-CXCR4 s.c. tumors = format: in vivo; conditions: for in vivo de-halogenation / stability on PET imaging: thyroid radioactivity on PET images; for accumulation in U87-CXCR4 s.c. tumors (in words): following i.v. injection
Protocol: All animal experiments were approved by the Institutional Animal Care and Utilization Committee of MSKCC. Eight human PCNSL xenograft models established at MSK (CG) were available for study. Female Athymic Nude Foxn (6–8 weeks old; ENVIGO) was used for subcutaneous implantation. Cancer cells, including U87-CXCR4, U87-WT, H69, and H82 (5 × 10^6 cells suspended in […] of cell culture medium/Matrigel [BD Bioscience] [v/v 5 1/1]), were inoculated to the shoulder/flank area of the animal. Twenty to 30 days after the inoculation, imaging and tissue sampling were performed when the tumor sizes were between 100 and 350 mm^3. For orthotopic models, U87-CXCR4 cells (1 × 10^5 cells suspended in 10 μl of cell culture medium) in 30-gauge needle were injected into the right frontal cortex (stereotactic coordinates: bregma + 1.7 mm (anterior), lateral − 0.5 mm (right), and at a depth of 2.5 mm). Individuals performing implantation and stereotactic injections were blinded to the experimental design.
(§1) Animals were administrated 3.7–11.1 MBq of ^76Br- or ^124I-labeled ligands via tail vein or intraspinal injection under 2 % isoflurane anesthesia. At 1 h and 24 h after injection, PET/CT imaging (or PET imaging) was performed with an Inveon PET/CT system. The tumors were centered in the field of view, and the PET acquisition time was 10 min (or longer if needed, until 50 million events are recorded). The image data were normalized to correct for non-uniformity of response of the PET camera, dead-time count losses, positron branching ratio, and physical decay to the time of injection, but no attenuation, scatter, or partial-volume averaging correction was applied. The calibration factor of both PET scanner was measured with a mouse-size phantom composed of a cylinder uniformly filled with an aqueous solution of ^18F of known activity concentration. The acquired PET/CT (or PET) images were analyzed using Inveon Research Workplace v4.2 software (or ASIPro software). Region of interest (ROI) analysis of the acquired images was performed using ASIPro software (Siemens, Malvern, PA, USA), and the observed maximum pixel value (%ID/cc) was utilized to diminish partial volume effects of tumor. The sequential radioactivity measurements (% injected dose/cc) were plotted vs. time of acquisition.
The imaging and uptake of 6 different radiolabeled cyclam derivatives were studied in subcutaneous tumor-bearing animals (animals bearing either 2 glioma or 2 glioma plus 2 lung cancer tumors) (Fig. 4). […] Radioactivity continued to increase in the U87-CXCR4 tumors but was washed out from the U87 wt (non-CXCR4-exressing) control tumors, over 60 min. […] Biodistribution studies confirmed the imaging studies. Comparing three radiolabeled cyclam derivatives, ^76Br-HZ270-1 was accumulated most avidly by U87-CXCR4 tumors and had the lowest overall systemic organ levels at 24 h post i.v. injection (Table 3). Brain radioactivity was lowest of all organs sampled. Based on these studies, ^76Br-HZ270-1 was selected for imaging intracranial CXCR4-expressing tumors.

[2] = test system: H69 and H82 lung cancer cells; test: Uptake of radiohalogenated cyclam derivatives in lung cancer cells; format: cell-based, human; conditions: 2.0 h incubation at 37 °C
Protocol: (§2) Glioma (U87-CXCR4 and U87-WT) and lung cancer (H82 and H69) cell lines with different level of CXCR4 expression were utilized for cell uptakes of all synthesized six radiotracers. Each cell line (0.25 × 10^6 per well) was seeded into 6-well plates, and on the next day, triplicate samples containing approximately 1.85 kBq of *Br or *I-labeled ligand were added and kept incubation at 37 °C for 2.0 h. After washing twice with PBS (4 °C) on the ice-bed, the cells were harvested for measurement with the gamma counter.
(§3) The uptake of 6 different radiolabeled cyclam derivatives was studied in 4 glioma and lung cancer cell lines (Fig. 2). The cell lines expressed both “high” (U87-CXCR4 and H69) and “low” (U87-WT and H82) levels of CXCR4, which were confirmed with IHC staining of CXCR4. […] These promising results from in vitro studies supported proceeding to in vivo PET imaging of CXCR4 expression in tumor-bearing animal models, using the newly developed radiolabeled cyclam derivatives.

[3] = test system: U87-CXCR4 and U87-WT glioma cells; test: Uptake of radiohalogenated cyclam derivatives in glioma cells; format: cell-based, human; conditions: 2.0 h incubation at 37 °C
Protocol: as §2, §3

[4] = test system: intracranial PCNSL-15 CXCR4-expressing tumors; test: PET imaging and autoradiography of intracranial PCNSL-15 tumors; format: in vivo, mice
Protocol: as §1, with “acquisition. […]” for “acquisition.”

[5] = test system: intracranial U87-CXCR4 tumors; test: PET imaging of intracranial U87-CXCR4 xenografts; format: in vivo, mice; conditions: i.v. injection
Protocol: All animal experiments were approved by the Institutional Animal Care and Utilization Committee of MSKCC. Eight human PCNSL xenograft models established at MSK (CG) were available for study. Female Athymic Nude Foxn (6–8 weeks old; ENVIGO) was used for subcutaneous implantation. Cancer cells, including U87-CXCR4, U87-WT, H69, and H82 (5 × 10^6 cells suspended in […] of cell culture medium/Matrigel [BD Bioscience] [v/v 5 1/1]), were inoculated to the shoulder/flank area of the animal. Twenty to 30 days after the inoculation, imaging and tissue sampling were performed when the tumor sizes were between 100 and 350 mm^3. […]
Animals were administrated 3.7–11.1 MBq of ^76Br- or ^124I-labeled ligands via tail vein or intraspinal injection under 2 % isoflurane anesthesia. […] The tumors were centered in the field of view, and the PET acquisition time was 10 min (or longer if needed, until 50 million events are recorded). […] The calibration factor of both PET scanner was measured with a mouse-size phantom composed of a cylinder uniformly filled with an aqueous solution of ^18F of known activity concentration. The acquired PET/CT (or PET) images were analyzed using Inveon Research Workplace v4.2 software (or ASIPro software). […] The sequential radioactivity measurements (% injected dose/cc) were plotted vs. time of acquisition. […]

HIV = conditions: cited from earlier work

Structure (SMILES) | IC50 (CXCR4) | Biodistribution, Blood [1] | Biodistribution, Bone [1] | Biodistribution, Brain [1] | Biodistribution, Heart [1] | Biodistribution, Kidneys [1] | Biodistribution, Liver [1] | Biodistribution, Spleen [1] | Biodistribution, U87 CXCR4 tumor [1] | Biodistribution, U87 WT tumor [1] | other results
Brc1cc(CN2CCCNCCNCCCNCC2)ccc1CN1CCCNCCNCCCNCC1 [HZ261] | 9.47 ± 2.87 nM |  |  |  |  |  |  |  |  |  | 
[124I]c1cc(CNCc2ccccn2)ccc1CN1CCCNCCNCCCNCC1 [^124I-HZ271-1] |  | 1.5 ± .05 %ID/g | 0.99 ± 0.33 %ID/g | 0.07 ± 0.04 %ID/g | 2.0 ± 0.4 %ID/g | 45.0 ± 5.7 %ID/g | 30 ± 23 %ID/g | 1.3 ± 0.7 %ID/g | 2.0 ± 0.3 %ID/g | 0.96 ± 0.21 %ID/g | Biodistribution, H69 tumor [1]: 2.3 ± 0.2 %ID/g; Biodistribution, H82 tumor [1]: 1.1 ± 1.0 %ID/g; Biodistribution, Lungs [1]: 2.3 ± 1.4 %ID/g; in vivo de-halogenation / stability on PET imaging (U87-CXCR4 s.c. tumors): significant decomposition in vivo
[76Br]c1cc(CN2CCCNCCNCCCNCC2)ccc1CNCc1ccccn1 [^76Br-HZ270-2] |  | 1.6 ± 0.5 %ID/g | 1.9 ± 0.6 %ID/g | 0.53 ± 0.01 %ID/g | 2.3 ± 0.4 %ID/g | 53.7 ± 12.6 %ID/g | 15.3 ± 3.5 %ID/g | 2.5 ± 0.2 %ID/g | 4.8 ± 1.6 %ID/g | 1.5 ± 0.2 %ID/g | 
[131I]c1cc(CN2CCCNCCNCCCNCC2)ccc1CN1CCCNCCNCCCNCC1 [^131I-HZ262] |  |  |  |  |  |  |  |  |  |  | H69/H82 uptake ratio [2]: 3.81 ± 0.40; radiotracer accumulation in H69 vs H82 cells (in words) [2]: highest; U87-CXCR4/U87-wt uptake ratio [3]: 3.19 ± 1.02; radiotracer accumulation in U87-CXCR4 vs U87-WT cells (in words) [3]: highest; accumulation in U87-CXCR4 s.c. tumors (in words) (U87-CXCR4 s.c. tumors): accumulated highest
[76Br]c1cc(CNCc2ccccn2)ccc1CN1CCCNCCNCCCNCC1 [^76Br-HZ270-1] |  | 0.59 ± 0.12 %ID/g | 2.9 ± 0.5 %ID/g | 0.14 ± 0.04 %ID/g | 1.7 ± 0.3 %ID/g | 41.3 ± 24.1 %ID/g | 7.6 ± 1.3 %ID/g | 2.1 ± 0.8 %ID/g | 9.5 ± 1.3 %ID/g | 1.6 ± 0.7 %ID/g | H69/H82 uptake ratio [2]: 3.93 ± 0.74; radiotracer accumulation in H69 vs H82 cells (in words) [2]: highest; localization of radioactivity after spinal-CSF injection ([4]; autoradiography with CXCR4 IHC and H&E, PET 1 and 24 h post injection): not localized to CXCR4-expressing tumor; PET imaging of CXCR4 expression in intracranial PCNSL #15 tumors ([4]; i.v. or spinal-CSF injection): unsuccessful; U87-CXCR4/U87-wt uptake ratio [3]: 2.96 ± 0.67; radiotracer accumulation in U87-CXCR4 vs U87-WT cells (in words) [3]: highest; PET imaging of CXCR4 expression in intracranial U87-CXCR4 tumors [5]: unsuccessful; also recorded: Very low levels of radioactivity were visualized; accumulation in U87-CXCR4 s.c. tumors (in words) (U87-CXCR4 s.c. tumors): accumulated highest
Ic1cc(CN2CCCNCCNCCCNCC2)ccc1CN1CCCNCCNCCCNCC1 [HZ262] | 15.9 ± 0.4 nM |  |  |  |  |  |  |  |  |  | 
[124I]c1cc(CN2CCCNCCNCCCNCC2)ccc1CN1CCCNCCNCCCNCC1 [^124I-HZ262] |  |  |  |  |  |  |  |  |  |  | in vivo de-halogenation / stability on PET imaging (U87-CXCR4 s.c. tumors): greater in vivo stability; in vivo de-halogenation / stability on PET imaging (U87-CXCR4 s.c. tumors; listed as 124I-AMD3100): no in vivo de-iodination
c1ccc(CNCc2ccc(CN3CCCNCCNCCCNCC3)cc2)nc1 [AMD3465, reference compound] | 15 ± 5.8 nM |  |  |  |  |  |  |  |  |  | 
c1cc(CN2CCCNCCNCCCNCC2)ccc1CN1CCCNCCNCCCNCC1 [AMD3100] |  |  |  |  |  |  |  |  |  |  | inhibited HIV infection, concentration range (HIV): 1 to 10 nM
